# Source: patent US7563791B2, “Pyrrolotriazine derivatives useful for treating hyper-proliferative disorders and diseases associated with angiogenesis” (Bayer Pharmaceuticals Corporation, priority 2004, dated 2009)
# Experiments:
# Format in all cases: cell-based
# [1] = system: VEGF stimulated Phospho-ERK in HUVEC; assay: Growth factor stimulated p-ERK assay in HUVECs (VEGF stimulation, ERK1/2 Bioplex); conditions: Homo sapiens, compound 2 hrs, then 50 ng/ml VEGF 10 min
# Experimental: Growth Factor Stimulated p-ERK assay in HUVECs
# Exponentially growing human endothelial HUVECs cells (human umbilical vein endothelial cells, cat# CC-2517, Cambrex, Walkersville, Md.) were seeded at twenty five thousand cells/well in 96 well plates in EBM-2 MV medium with growth factors (cat# CC-3202, Cambrex) and grown at 37° C. in 5% CO2. Sixteen hours post-plating, the cells were changed to serum-free medium (RPMI 1640 containing 0.1% BSA (bovine serum albumin) and compounds were added at different concentrations for 2 hrs, after which the cells were stimulated for 10 min with 50 ng/ml of either VEGF (vascular endothelial growth factor, Protein Sciences, Meriden, Conn.) or bFGF (basic fibroblast growth factor cat# PHG0026, Biosource International, Camarillo, Calif.). The rest of the assay was performed per manufacturer indications for the ERK½ Bioplex assay (cat#171-304004, Bio-Rad, Hercules, Calif.). After removing culture medium by aspiration, the cells were quickly rinsed with 100 μl of cell wash buffer A to stop treatment reaction. Eighty microliters of cell lysis buffer were then immediately added to each well of the 96 well plate which was put on ice. Cells in each well were lysed by pipetting up and down 5 times with a multi-channel pipet. The plate was then agitated on a microtiter plate shaker at 300 rpm for 20 min at 4° C. Cellular debris were pelleted by centrifugation at 4500 g for 15 min at 4° C. and the supernatant was collected. Forty five microliters of supernatant was diluted with an equal volume of Bio-Plex phosphoprotein assay Buffer B, The coupled and color coated beads were added into a 96 well filter plate, and the prepared lysates were added. The beads and lysate mixture was incubated at room temperature for 15-18 hrs. The following day, the plate was vacuum-filtered and then washed 3×. Twenty-five microliters of detection antibody solution were added to each well and the plate was then incubated for 30 min at room temperature. The plate was then vaccum-filtered and washed as described previously. Fifty microliters of streptavidin-PE solution was added to each well, the plate was incubated for 10 min at room temperature and then was then vaccum-filtered and washed as described above. One hundred twenty-five microliters of resuspension buffer was added to each well and data were acquired on the Luminex 100 instrument (Bio-Rad).
# [2] = system: HCT116 cells; assay: Tumor cell proliferation (Alamar Blue), HCT116; conditions: Homo sapiens, HCT-116, 72 h
# Experimental: (§1) Human tumor cells (e.g., HCT116 or MDA-MB-231 cells), are seeded in a Costar 96-well plate at 3.0×10^3 cells/well and grown in 150 μl of RPMI complete media (Invitrogen Corporation, Grand Island, N.Y.) containing 10% fetal bovine serum (Hyclone, Logan, Utah) at 37° C. for 16 h in an incubator with 5% CO2. To each well, 50 μl of additional growth media containing 40 μM to 18 nM concentrations of compound with 0.4% DMSO is added. Cells are grown for another 72 h at 37° C. with 5% CO2. 20 μl of Alamar Blue (Trek Diagnostic Systems, Inc., Cleveland, Ohio) reagent is added to each well and incubated for 3 h at 37° C. Plates are read in a SpectraMax Gemini (Molecular Devices, Calif.) with 544 nm excitation and 590 nm emission wavelength. IC50 values are determined by linear regression analysis of log drug concentration versus percent inhibition.
# [3] = system: MDA-MB-231 cells; assay: Tumor cell proliferation (Alamar Blue), MDA-MB-231; conditions: Homo sapiens, MDA-MB-231, 72 h
# Experimental: as §1
# [4] = system: VEGFR stimulated HUVEC proliferation; assay: BRDU growth factor stimulated proliferation of HUVEC (VEGF stimulation); conditions: Homo sapiens, 72 h, 80 ng/ml VEGF, 3 days, BrdU incorporation
# Experimental: BRDU Growth Factor Stimulated Proliferation of HUVEC
# Exponentially growing human umbilical vein endothelial cells (HUVEC; Cat# CC-2519A, Cambrex, Walkersville, Md.) were seeded at two thousand cells/well into Collagen IV-coated 96 well plates (Cat#35-4429, Becton Dickinson, Bedford, Mass.) in assay media containing RPMI-1640 (Cat#11875-093, Gibco, Carlsbad, Calif.), 0.5% charcoal-stripped serum (Cat# SH30068.03, HyClone, Logan, Utah), and 1% N-2 supplement (Cat#17502-048, Gibco, Carlsbad, Calif.). Fours hours after incubating the plates at 37° C. in 5% CO2, the cells were treated with different concentrations of compound (diluted in assay media with a final DMSO concentration=0.1%) and then were immediately stimulated with 80 ng/ml of vascular endothelial growth factor (VEGF, Cat#100-20, PeproTech, Rocky Hill, N.J.) or 1.5 ng/ml of basic fibroblast growth factor (bFGF, Catt#100-18B, PeproTech, Rocky Hill, N.J.). Treated cells were incubated for 3 days at 37° C. in 5% CO2. DNA synthesis was measured via the incorporation of bromodeoxyuridine (BrdU) into newly synthesized DNA using the Amersham Cell Proliferation BioTrack ELISA system (Cat# RPN250, Amersham, Piscataway, N.J.). Diluted BrdU solution (20 μl of stock BrdU diluted 1:20 fold into assay media) was added to each well and incubation proceeded for 6 hours at 37° C. in 5% CO2. The media was removed and the cells were fixed according to the specifications of the Amersham assay kit for 30 minutes at room temperature. After removing the fixative, blocking buffer (supplied by Amersham kit; 200 μl/well) was added and the plates were stored at 4° C. overnight. The blocking buffer was aspirated and peroxidase-labeled anti-BrdU antibody (supplied by Amersham kit; 100 μl/well) was added and incubated for 3 hours at room temperature. The plates were washed three times with wash buffer (supplied by Amersham kit; 300 μl/well/wash). Immediately following the washes, 100 μl of the TMB-substrate was dispensed into each well and the plates were further incubated for 30 minutes at room temperature. The reaction was terminated by the addition of 25 μl of 1M H2SO4. Plates were read immediately at 450 nm using a SpectraMAX 250 spectrophotometer plate reader (Molecular Devices, Sunnyvale, Calif.). The software utilized was SoftMAX pro v.2.4.1.
IC50 [2] [µM],IC50 [3] [µM],IC50 ([3]; bounds given in μM) [µM],IC50 ([2]; bounds given in μM) [µM],Compound,inhibition at 0.1 µM ([1]; @ 100 nM) [%],inhibition at 1 µM ([1]; @ 1 μM) [%],IC50 [4] [µM],IC50 ([4]; bound given in μM) [µM]
< 0.5,> 0.5,< 1.5,,"Nc1ncnn2cc(C(=O)NCC(F)(F)F)c(-c3ccc(NC(=O)Nc4cc(C(F)(F)F)ccn4)cc3)c12 [Example 93, 4-amino-N-(2,2,2-trifluoroethyl)-5-{4-[({[4-(trifluoromethyl)pyridin-2-yl]amino}carbonyl)amino]phenyl}pyrrolo[2,1-f][1,2,4]triazine-6-carboxamide]",< 50,> 50,,
,,1.5 to 5,1.5 to 5,"Nc1ncnn2cc(-c3nnco3)c(-c3ccc(NC(=O)Nc4cc(C(F)(F)F)ccc4F)cc3)c12 [Example 163, N-{4-[4-amino-6-(1,3,4-oxadiazol-2-yl)pyrrolo[2,1-f][1,2,4]triazin-5-yl]phenyl}-N′-[2-fluoro-5-(trifluoromethyl)phenyl]urea]",,,> 0.5,< 2
> 0.5,,1.5 to 5,< 1.5,"Nc1ncnn2cc(-c3nc(CO)co3)c(-c3ccc(NC(=O)Nc4cc(C(F)(F)F)ccc4F)cc3)c12 [Example 241, N-(4-{4-amino-6-[4-(hydroxymethyl)-1,3-oxazol-2-yl]pyrrolo[2,1-f][1,2,4]triazin-5-yl}phenyl)-N′-[2-fluoro-5-(trifluoromethyl)phenyl]urea]",,,,
> 0.5,< 0.5,,< 1.5,"CCNC(=O)c1cn2ncnc(N)c2c1-c1ccc(NC(=O)Nc2cc(C(F)(F)F)ccc2F)cc1 [Example 71, 4-amino-N-ethyl-5-{4-[({[2-fluoro-5-(trifluoromethyl)phenyl]amino}carbonyl)amino]phenyl}pyrrolo[2,1-f][1,2,4]triazine-6-carboxamide]",,,,
> 0.5,> 0.5,< 1.5,< 1.5,"Nc1ncnn2cc(-c3nc(CN4CCOCC4)co3)c(-c3ccc(NC(=O)Nc4cc(C(F)(F)F)ccc4F)cc3)c12 [Example 257, N-(4-{4-amino-6-[4-(morpholin-4-ylmethyl)-1,3-oxazol-2-yl]pyrrolo[2,1-f][1,2,4]triazin-5-yl}phenyl)-N′-[2-fluoro-5-(trifluoromethyl)phenyl]urea]",,,,
,> 0.5,< 1.5,1.5 to 5,"COCCOCc1cn2ncnc(N)c2c1-c1ccc(NC(=O)Nc2cc(C(C)(C)C)nn2-c2ccc(F)cc2)cc1 [Example 248, N-(4-{4-amino-6-[(2-methoxyethoxy)methyl]pyrrolo[2,1-f][1,2,4]triazin-5-yl}phenyl)-N′-[3-tert-butyl-1-(4-fluorophenyl)-1H-pyrazol-5-yl]urea]",,,,
,> 0.5,< 1.5,1.5 to 5,"COCc1cn2ncnc(N)c2c1-c1ccc(NC(=O)Nc2cc(C(C)(C)C)nn2-c2ccc(F)cc2)cc1 [Example 217, N-{4-[4-amino-6-(methoxymethyl)pyrrolo[2,1-f][1,2,4]triazin-5-yl]phenyl}-N′-[3-tert-butyl-1-(4-fluorophenyl)-1H-pyrazol-5-yl]urea]",,,,
< 0.5,< 0.5,,,"CCOC(=O)c1cn2ncnc(N)c2c1-c1ccc(NC(=O)Nc2cc(C(C)(C)C)nn2-c2ccc(F)cc2)cc1 [Example 25, ethyl 4-amino-5-{4-[({[3-tert-butyl-1-(4-fluorophenyl)-1H-pyrazol-5-yl]amino}carbonyl)amino]phenyl}pyrrolo[2,1-f][1,2,4]triazine-6-carboxylate]",,,,
> 0.5,,1.5 to 5,< 1.5,"CC(C)(C)c1ccnc(NC(=O)Nc2ccc(-c3c(C(=O)NC4CC4)cn4ncnc(N)c34)cc2)c1 [Example 76, 4-amino-5-[4-({[(4-tert-butylpyridin-2-yl)amino]carbonyl}amino)phenyl]-N-cyclopropylpyrrolo[2,1-f][1,2,4]triazine-6-carboxamide]",,,,
> 0.5,,1.5 to 5,< 1.5,"Nc1ncnn2cc(C(=O)NC3CC3)c(-c3ccc(NC(=O)Nc4cc(C(F)(F)F)ccc4F)cc3)c12 [Example 69, 4-amino-N-cyclopropyl-5-{4-[({[2-fluoro-5-(trifluoromethyl)phenyl]amino}carbonyl)amino]phenyl}pyrrolo[2,1-f][1,2,4]triazine-6-carboxamide]",,,,
> 0.5,,1.5 to 5,< 1.5,"CC(C)(C)c1cc(NC(=O)Nc2ccc(-c3c(C#N)cn4ncnc(N)c34)cc2)on1 [Example 161, N-[4-(4-amino-6-cyanopyrrolo[2,1-f][1,2,4]triazin-5-yl)phenyl]-N′-(3-tert-butylisoxazol-5-yl)urea]",,,,
> 0.5,> 0.5,< 1.5,< 1.5,"N#Cc1cn2ncnc(N)c2c1-c1ccc(NC(=O)Nc2cc(C(F)(F)F)ccc2F)c(F)c1 [Example 256, N-[4-(4-amino-6-cyanopyrrolo[2,1-f][1,2,4]triazin-5-yl)-2-fluorophenyl]-N′-[2-fluoro-5-(trifluoromethyl)phenyl]urea]",,,,
,,1.5 to 5,1.5 to 5,"CCOC(=O)c1cn2ncnc(N)c2c1-c1ccc(NC(=O)Nc2cc(C(F)(F)F)ccn2)c(F)c1 [Example 242, ethyl 4-amino-5-{3-fluoro-4-[({[4-(trifluoromethyl)pyridin-2-yl]amino}carbonyl)amino]phenyl}pyrrolo[2,1-f][1,2,4]triazine-6-carboxylate]",,,,
,> 0.5,< 1.5,1.5 to 5,"CC(C)(CN1CCOCC1)NC(=O)c1cn2ncnc(N)c2c1-c1ccc(NC(=O)Nc2cc(C(F)(F)F)ccc2Cl)cc1 [Example 149, 4-amino-5-{4-[({[2-chloro-5-(trifluoromethyl)phenyl]amino}carbonyl)amino]phenyl}-N-(1,1-dimethyl-2-morpholin-4-ylethyl)pyrrolo[2,1-f][1,2,4]triazine-6-carboxamide]",,,,
